# Measurements from patent US20090317376A1, “Compositions And Methods For Lipo Modeling” (Georgetown University MEDICAL SCHOOL, priority 2005, published 2009).
# System: endothelial cells
# Assay: Endothelial cell proliferation (mitogenic assay)
# Format: cell-based, human
# Source text: To mimic stress-released NPY in vitro, conditioned media from, or coculture with, neuroblastoma SKNBE cells (a model of sympathetic neurons which release 0.1 pM NPY) is used to treat endothelial cells and 3T3-L1 preadipocytes. Both cell lines express all NPYRs but lack NPY (confirmed by RT-PCR and IHC, FIG. […] 6). […] When 3T3-L1 preadipocytes are cocultured with HMVEC, there is no significant mitogenic response between treated and untreated cells.
# Co-culture: For mitogenic assay and expression studies, co-culture is performed in a Costar Transwell system. Cells are plated on the 6-well plates and the inserts with 0.4 μm Polyester membranes. After they reach 30% confluence, the inserts are placed into plates with other cells. Co-culture of neuroblastomas/SCG neurons with aECs are carried out in EC media and with preadipocytes—in preadipocyte growth media. […] After 48 h, the cells are counted with a coulter counter. […]
# Mitogenic assays: 3T3-L1 pre-adipocytes are allowed to grow to 30% confluency before serum-starving the cells. […] Proliferation is determined by cell counting using a coulter counter (Beckman Coulter, Miami, Fla.). […] After 24 h, cells are harvested in a 96-well harvester (Tomtec) and counted in a Betaplate Liquid Scintillation Counter (Wallac).
# 1. […] After 24 h, cells were harvested in a 96-well harvester (Tomtec) and counted in a Betaplate Liquid Scintillation Counter (Wallac). […]
Compound,block of NPY- and neuroblastoma-conditioned media-stimulated endothelial cell proliferation (BIIE0246 1 μM),endothelial cell proliferation (NPY treatment of endothelial cells)
N=C(N)NCCC[C@H](NC(=O)CC1(CC(=O)N2CCN(C3c4ccccc4NC(=O)c4ccccc43)CC2)CCCC1)C(=O)NCCn1c(=O)n(-c2ccccc2)n(-c2ccccc2)c1=O (some centres unmarked) [BIIE0246],blocked,
neuropeptide Y [NPY],,stimulated
